# Experimental data taken from ChEMBL document CHEMBL6078653, “In Vitro Biological Target Screening and Colloidal Aggregation of Minor Cannabinoids” (J Nat Prod, 2024).
# Assays:
# [1] = molecular target: Mu-type opioid receptor (Homo sapiens, UniProt P35372); test: Displacement of [3H]-Diprenorphine from human recombinant MOP receptor expressed in CHO-K1 cells incubated for 60 mins by radioligand binding assay; type: toxicity, cell-based
# [2] = species: Homo sapiens; test: Inhibition of human MDH at 100 to 200 uM incubated for 5 mins in presence of NADH by absorbance based analysis relative to control; conditions: dose 100-200 µM
# [3] = Inhibition of human MDH incubated for 5 mins in presence of NADH by absorbance based analysis
# [4] = species: Homo sapiens; test: Inhibition of human MDH at 100 to 200 uM incubated for 5 mins in presence of NADH and triton X-100 by absorbance based analysis relative to control; conditions: dose 100-200 µM
# [5] = Aggregation property of compound in DMEM assessed as critical aggregation concentration by DLS assay; type: physicochemical
# [6] = molecular target: Histamine H1 receptor (Homo sapiens, UniProt P35367); test: Displacement of [3H]-Pyrilamine from human recombinant H1 receptor expressed in CHO-K1 cells incubated for 3 hrs by radioligand binding assay; type: toxicity, cell-based
# Sequence of Histamine H1 receptor (P35367 whole entry): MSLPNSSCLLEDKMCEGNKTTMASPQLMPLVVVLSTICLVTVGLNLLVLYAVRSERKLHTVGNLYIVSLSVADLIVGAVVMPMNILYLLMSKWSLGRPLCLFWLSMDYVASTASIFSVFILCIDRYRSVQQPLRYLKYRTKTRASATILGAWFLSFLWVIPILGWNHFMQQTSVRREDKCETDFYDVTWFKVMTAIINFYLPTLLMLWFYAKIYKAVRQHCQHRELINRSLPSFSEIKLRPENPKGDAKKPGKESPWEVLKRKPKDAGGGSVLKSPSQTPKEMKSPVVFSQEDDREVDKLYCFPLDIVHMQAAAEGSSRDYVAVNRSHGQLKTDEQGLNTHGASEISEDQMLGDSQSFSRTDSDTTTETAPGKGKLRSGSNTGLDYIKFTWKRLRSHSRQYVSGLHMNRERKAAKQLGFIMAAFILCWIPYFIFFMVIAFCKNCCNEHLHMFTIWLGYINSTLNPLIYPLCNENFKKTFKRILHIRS
# [7] = Aggregation property of compound in PB buffer at pH 7 assessed as critical aggregation concentration by DLS assay; type: physicochemical
# [8] = molecular target: Sodium-dependent noradrenaline transporter (Homo sapiens, UniProt P23975); test: Displacement of [125]RTI-55 from human recombinant NET receptor expressed in MDCK cells incubated for 3 hrs by radioligand binding assay; type: toxicity, cell-based
# Sequence of Sodium-dependent noradrenaline transporter (P23975 whole entry): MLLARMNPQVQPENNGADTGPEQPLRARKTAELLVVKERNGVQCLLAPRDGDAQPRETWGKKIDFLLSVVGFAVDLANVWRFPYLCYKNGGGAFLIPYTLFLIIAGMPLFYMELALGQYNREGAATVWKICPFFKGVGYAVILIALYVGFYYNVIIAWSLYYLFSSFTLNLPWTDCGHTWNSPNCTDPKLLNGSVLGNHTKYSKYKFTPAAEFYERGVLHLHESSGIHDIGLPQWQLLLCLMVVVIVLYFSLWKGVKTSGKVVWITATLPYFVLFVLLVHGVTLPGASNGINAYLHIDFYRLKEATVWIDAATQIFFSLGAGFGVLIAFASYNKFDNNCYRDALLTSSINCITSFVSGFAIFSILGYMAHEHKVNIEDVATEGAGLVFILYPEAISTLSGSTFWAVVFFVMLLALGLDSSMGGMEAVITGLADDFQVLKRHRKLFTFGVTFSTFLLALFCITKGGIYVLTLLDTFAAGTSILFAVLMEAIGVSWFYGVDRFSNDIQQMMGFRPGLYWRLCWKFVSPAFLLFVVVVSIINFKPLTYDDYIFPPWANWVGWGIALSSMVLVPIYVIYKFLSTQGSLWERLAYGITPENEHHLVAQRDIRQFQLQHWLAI
# [9] = molecular target: Sodium-dependent dopamine transporter (Homo sapiens, UniProt Q01959); test: Displacement of [125]RTI-55 from human recombinant DAT receptor expressed in CHO-S cells incubated for 3 hrs by radioligand binding assay; type: cell-based
# Sequence of Sodium-dependent dopamine transporter (Q01959 whole entry): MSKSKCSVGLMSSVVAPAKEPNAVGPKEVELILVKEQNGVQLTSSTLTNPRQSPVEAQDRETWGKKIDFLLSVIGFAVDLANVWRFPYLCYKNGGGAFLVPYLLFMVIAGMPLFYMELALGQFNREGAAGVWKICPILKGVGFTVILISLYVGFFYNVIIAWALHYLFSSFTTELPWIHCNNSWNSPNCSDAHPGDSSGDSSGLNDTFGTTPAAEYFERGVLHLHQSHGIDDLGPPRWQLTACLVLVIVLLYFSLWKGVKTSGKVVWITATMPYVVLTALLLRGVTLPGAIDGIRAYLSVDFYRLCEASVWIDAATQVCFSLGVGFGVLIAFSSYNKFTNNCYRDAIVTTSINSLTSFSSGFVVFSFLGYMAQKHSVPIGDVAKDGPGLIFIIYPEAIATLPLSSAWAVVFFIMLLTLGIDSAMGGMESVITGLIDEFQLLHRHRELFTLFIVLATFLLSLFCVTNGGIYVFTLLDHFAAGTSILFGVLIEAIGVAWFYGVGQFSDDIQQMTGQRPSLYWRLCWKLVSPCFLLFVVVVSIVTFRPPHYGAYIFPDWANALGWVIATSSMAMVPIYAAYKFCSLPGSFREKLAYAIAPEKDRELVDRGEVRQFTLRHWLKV
# [10] = molecular target: Sodium-dependent serotonin transporter (Homo sapiens, UniProt P31645); test: Displacement of [3H]-Paroxetine from human […] cells incubated for 60 mins by radioligand binding assay; type: toxicity, cell-based
# Sequence of Sodium-dependent serotonin transporter (P31645 whole entry): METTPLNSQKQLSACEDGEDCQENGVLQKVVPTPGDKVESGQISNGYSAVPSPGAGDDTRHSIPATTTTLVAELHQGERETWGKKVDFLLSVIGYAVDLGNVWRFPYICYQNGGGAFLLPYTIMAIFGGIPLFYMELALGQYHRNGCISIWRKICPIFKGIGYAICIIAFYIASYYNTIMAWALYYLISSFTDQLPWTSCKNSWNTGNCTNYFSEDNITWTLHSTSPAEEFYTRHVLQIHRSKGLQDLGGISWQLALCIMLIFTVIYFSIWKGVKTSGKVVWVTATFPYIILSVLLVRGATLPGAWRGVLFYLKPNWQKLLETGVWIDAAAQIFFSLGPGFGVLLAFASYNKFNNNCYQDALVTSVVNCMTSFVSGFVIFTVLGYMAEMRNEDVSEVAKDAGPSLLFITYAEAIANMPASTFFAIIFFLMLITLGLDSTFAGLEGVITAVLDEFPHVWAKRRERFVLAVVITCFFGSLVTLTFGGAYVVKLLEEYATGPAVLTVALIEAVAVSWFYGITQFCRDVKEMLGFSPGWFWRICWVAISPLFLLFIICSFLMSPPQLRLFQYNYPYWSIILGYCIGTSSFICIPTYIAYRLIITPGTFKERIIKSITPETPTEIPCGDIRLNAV
# [11] = Aggregation property of compound in Tris HCL buffer at pH 7.4 assessed as critical aggregation concentration by DLS assay; type: physicochemical
# [12] = Aggregation property of compound in PBS buffer at pH 7.4 assessed as critical aggregation concentration by DLS assay; type: physicochemical
# [13] = molecular target: 5-hydroxytryptamine receptor 2A (Homo sapiens, UniProt P28223); test: Displacement of [3H]ketanserin from human recombinant 5-HT2A receptor expressed in CHO-K1 cells incubated for 60 mins by radioligand binding assay; type: toxicity, cell-based
# Sequence of 5-hydroxytryptamine receptor 2A (P28223 whole entry): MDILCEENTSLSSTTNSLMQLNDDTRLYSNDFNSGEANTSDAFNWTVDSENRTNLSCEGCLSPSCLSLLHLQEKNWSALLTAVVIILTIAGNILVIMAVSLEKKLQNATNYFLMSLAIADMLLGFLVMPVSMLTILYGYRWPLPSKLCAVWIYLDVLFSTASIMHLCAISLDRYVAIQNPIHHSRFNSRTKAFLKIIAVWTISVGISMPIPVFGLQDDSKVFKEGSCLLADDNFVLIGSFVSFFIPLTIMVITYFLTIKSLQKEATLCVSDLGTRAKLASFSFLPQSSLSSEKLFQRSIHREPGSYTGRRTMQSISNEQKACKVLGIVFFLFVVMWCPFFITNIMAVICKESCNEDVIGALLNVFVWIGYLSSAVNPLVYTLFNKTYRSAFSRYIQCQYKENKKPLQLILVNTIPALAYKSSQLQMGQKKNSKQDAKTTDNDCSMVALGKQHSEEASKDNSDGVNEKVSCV
# [14] = molecular target: Voltage-gated inwardly rectifying potassium channel KCNH2 (Homo sapiens, UniProt Q12809); test: Displacement of [3H]-Dofetilide from recombinant hERG expressed in HEK293 cells incubated for 60 mins by radioligand binding assay; type: toxicity, cell-based
# Sequence of Voltage-gated inwardly rectifying potassium channel KCNH2 (Q12809 whole entry): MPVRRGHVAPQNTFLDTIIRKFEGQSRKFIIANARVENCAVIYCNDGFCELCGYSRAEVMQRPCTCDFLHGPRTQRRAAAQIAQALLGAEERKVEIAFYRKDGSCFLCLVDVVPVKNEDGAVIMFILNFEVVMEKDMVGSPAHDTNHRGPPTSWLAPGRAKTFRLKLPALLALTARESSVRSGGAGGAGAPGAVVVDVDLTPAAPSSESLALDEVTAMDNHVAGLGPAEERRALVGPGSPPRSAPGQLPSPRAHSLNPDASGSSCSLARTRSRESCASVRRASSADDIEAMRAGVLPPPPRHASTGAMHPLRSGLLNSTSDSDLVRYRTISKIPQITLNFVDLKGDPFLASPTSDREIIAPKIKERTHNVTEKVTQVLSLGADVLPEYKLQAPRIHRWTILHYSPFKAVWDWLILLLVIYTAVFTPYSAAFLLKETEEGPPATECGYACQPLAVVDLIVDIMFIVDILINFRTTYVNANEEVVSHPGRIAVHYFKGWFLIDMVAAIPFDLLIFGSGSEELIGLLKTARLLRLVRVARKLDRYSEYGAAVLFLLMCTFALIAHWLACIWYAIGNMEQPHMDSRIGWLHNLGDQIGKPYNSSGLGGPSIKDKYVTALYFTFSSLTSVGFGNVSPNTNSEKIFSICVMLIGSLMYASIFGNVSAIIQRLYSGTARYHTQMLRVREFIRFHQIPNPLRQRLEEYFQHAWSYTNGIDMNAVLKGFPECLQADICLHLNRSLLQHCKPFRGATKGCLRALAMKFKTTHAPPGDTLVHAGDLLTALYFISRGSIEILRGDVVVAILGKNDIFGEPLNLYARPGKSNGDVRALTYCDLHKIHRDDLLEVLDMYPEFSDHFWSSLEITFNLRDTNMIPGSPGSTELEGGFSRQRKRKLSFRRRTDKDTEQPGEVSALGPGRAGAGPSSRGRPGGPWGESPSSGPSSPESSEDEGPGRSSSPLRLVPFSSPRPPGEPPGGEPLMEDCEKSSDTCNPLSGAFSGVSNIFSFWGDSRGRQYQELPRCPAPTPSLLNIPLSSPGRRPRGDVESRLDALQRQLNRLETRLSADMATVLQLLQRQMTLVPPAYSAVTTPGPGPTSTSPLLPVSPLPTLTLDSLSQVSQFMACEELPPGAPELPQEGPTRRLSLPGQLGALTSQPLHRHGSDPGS
# Sequence of Mu-type opioid receptor (P35372 whole entry): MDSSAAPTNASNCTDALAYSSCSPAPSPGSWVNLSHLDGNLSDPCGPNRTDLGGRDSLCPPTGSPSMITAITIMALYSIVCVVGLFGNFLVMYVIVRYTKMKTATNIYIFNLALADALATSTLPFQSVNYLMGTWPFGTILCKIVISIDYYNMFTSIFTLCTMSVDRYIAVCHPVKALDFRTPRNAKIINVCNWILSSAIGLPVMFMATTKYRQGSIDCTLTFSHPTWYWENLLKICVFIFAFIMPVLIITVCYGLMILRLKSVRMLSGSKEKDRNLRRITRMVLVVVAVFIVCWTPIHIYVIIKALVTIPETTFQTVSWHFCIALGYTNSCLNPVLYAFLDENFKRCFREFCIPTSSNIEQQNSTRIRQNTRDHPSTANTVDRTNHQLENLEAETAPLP
Structure (SMILES),IC50 [1],inhibition [2],IC50 [3],inhibition [4],CAC [5],IC50 [6],CAC [7],IC50 [8],IC50 [9],IC50 [10],CAC [11],CAC [12],IC50 [13],IC50 [14]
CCCCCc1cc2c(c(O)c1C(=O)O)C=CC(C)(CCC=C(C)C)O2 (stereo unspecified),10.8 µM,100%,30.2 µM,100%,100 µM,5.7 µM,100 µM,3.22 µM,,,,,,
CCCCCc1cc(O)c2c(c1)OC(C)(CCC=C(C)C)C=C2 (stereo unspecified) [CANNABICHROMENE],,100%,1 µM,100%,1.6 µM,,5.6 µM,1.95 µM,0.74 µM,6.26 µM,0.8 µM,0.2 µM,,
C=C(C)[C@@H]1CCC(C)=C[C@H]1c1c(O)cc(CCCCC)c(C(=O)O)c1O [CANNABIDIOLIC ACID],,100%,46.8 µM,100%,,,60.3 µM,,,,,,,
C=C(C)[C@@H]1CCC(C)=C[C@H]1c1c(O)cc(CCC)cc1O [CANNABIDIVARIN],6.42 µM,100%,11 µM,100%,100 µM,,31.6 µM,2.66 µM,3 µM,,100 µM,31.6 µM,,
CCCCCc1cc(O)c(C/C=C(\C)CCC=C(C)C)c(O)c1C(=O)O [CANNABIGEROLIC ACID],,100%,28.8 µM,100%,,,12 µM,,3.88 µM,,,,,
CCCCCc1cc(O)c(C/C=C(\C)CCC=C(C)C)c(O)c1 [CANNABIGEROL],1.38 µM,100%,8.8 µM,100%,16.7 µM,,20.9 µM,2.45 µM,0.95 µM,1.66 µM,20.3 µM,100 µM,1.88 µM,3.06 µM
CCCCCc1cc(O)c2c(c1)OC(C)(C)c1ccc(C)cc1-2 [CANNABINOL],3.21 µM,100%,3.2 µM,100%,4.8 µM,,12.9 µM,1.15 µM,,3.35 µM,10.4 µM,23.1 µM,4.89 µM,
